“Also recorded” adds a separate entry of the source. Like-named read-outs stand apart in the source and are kept apart here.
Key:
AChE = target: T1, AChE (Electrophorus electricus, UniProt O42275); test: biochemical; assay type: biochemical; conditions: for inhibition at 100 µM: read-out: AChE inhibitory activity at 100 μM (%)
T1 construct: purchased Sigma-Aldrich C3389

BuChE = BuChE (Equus caballus, UniProt P81908); test: biochemical; assay type: biochemical; conditions: for inhibition at 100 µM: read-out: BuChE inhibitory activity at 100 μM (%); for Binding mode (BuChE): Lineweaver-Burk plots
[1] = 100 μM compound, mean ± SEM, tested three times
[2] = mean ± SEM, tested three times, read-out: AChE IC50
[3] = mean ± SEM, tested three times, read-out: BuChE IC50
[4] = secondary replot, read-out: Ki (μM) on BuChE

T1 sequence (O42275 24-633): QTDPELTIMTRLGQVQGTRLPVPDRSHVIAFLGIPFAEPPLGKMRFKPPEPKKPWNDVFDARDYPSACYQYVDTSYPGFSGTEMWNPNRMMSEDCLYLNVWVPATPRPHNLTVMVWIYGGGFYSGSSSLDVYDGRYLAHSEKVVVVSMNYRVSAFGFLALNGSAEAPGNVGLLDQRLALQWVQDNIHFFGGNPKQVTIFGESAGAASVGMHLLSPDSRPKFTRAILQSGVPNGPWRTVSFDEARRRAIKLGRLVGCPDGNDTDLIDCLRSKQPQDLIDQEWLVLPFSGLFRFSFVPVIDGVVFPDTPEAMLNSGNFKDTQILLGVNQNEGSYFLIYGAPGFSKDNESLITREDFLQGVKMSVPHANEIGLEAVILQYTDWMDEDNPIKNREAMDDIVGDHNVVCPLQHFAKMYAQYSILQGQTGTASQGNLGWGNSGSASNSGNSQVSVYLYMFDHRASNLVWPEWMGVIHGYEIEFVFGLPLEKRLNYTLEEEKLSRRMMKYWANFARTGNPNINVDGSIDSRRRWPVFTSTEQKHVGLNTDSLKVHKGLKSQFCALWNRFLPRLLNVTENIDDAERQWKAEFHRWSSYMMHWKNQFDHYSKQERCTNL
Sequence of BuChE (P81908 whole entry): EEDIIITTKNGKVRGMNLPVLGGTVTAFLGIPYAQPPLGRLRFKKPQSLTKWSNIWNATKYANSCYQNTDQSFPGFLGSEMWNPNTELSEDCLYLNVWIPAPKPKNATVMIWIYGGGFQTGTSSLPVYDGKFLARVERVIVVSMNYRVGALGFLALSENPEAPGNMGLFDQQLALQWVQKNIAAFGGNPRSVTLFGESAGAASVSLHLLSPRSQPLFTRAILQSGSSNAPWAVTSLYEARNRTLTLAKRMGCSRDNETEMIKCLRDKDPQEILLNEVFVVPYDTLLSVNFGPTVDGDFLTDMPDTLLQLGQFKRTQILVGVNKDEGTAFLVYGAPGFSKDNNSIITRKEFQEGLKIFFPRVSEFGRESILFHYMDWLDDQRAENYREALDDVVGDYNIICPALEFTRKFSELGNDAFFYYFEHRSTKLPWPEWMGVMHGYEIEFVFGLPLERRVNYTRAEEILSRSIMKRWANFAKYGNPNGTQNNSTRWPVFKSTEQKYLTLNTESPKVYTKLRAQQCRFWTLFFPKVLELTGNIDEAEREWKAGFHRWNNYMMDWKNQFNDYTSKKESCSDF

Row | Molecule | inhibition at 100 µM (AChE) [%] | IC50 (BuChE) [µM] | inhibition at 100 µM (BuChE) [%] | further results
1 | CC1CC2OC3(OC2C(C)(C)O)C1C1(C)CCC24CC25CCC(OC2OCC(O)C(O)C2O)C(C)(C)C5CC=C4C1(C)C3O [Compound 16, 24-epi-7,8-didehydrocimigenol 3-O-β-D-xylopyranoside] | 19 ± 2.5 | 31 ± 5.5 | 62 ± 0.8 | 
2 | COc1ccc(/C=C/C(=O)OCC(=O)c2ccc(O)c(O)c2)cc1O [Compound 1, cimiciphenone] |  |  |  | inhibition at 100 µM (AChE; [1]): 65.4 ± 0.9%; Binding mode (AChE) (AChE; Lineweaver-Burk plots): competitive inhibitor; also recorded: Competitive type (AChE); IC50 (AChE; [2]): 16.7 ± 1.9 µM; Ki (AChE; secondary replot): 16.2 ± 0.9 µM; inhibition at 100 µM (BuChE; [1]): 13.6 ± 0.7%
3 | CC(=O)OC(C)(C)[C@H]1O[C@@]23O[C@@H]1C[C@@H](C)[C@@H]2[C@@]1(C)CC[C@@]24C[C@@]25CC[C@H](O)C(C)(C)[C@@H]5CC[C@H]4[C@]1(C)[C@H]3O [Compound 11, 25-O-acetylcimigenol] | 15.8 ± 4.3 |  | 14 ± 2.6 | 
4 | C[C@@H]1C[C@H]2O[C@]3(O[C@@H]2C(C)(C)O)[C@H]1[C@@]1(C)CC[C@@]24C[C@@]25CC[C@H](O)C(C)(C)[C@@H]5CC=C4[C@]1(C)[C@H]3O [Compound 5, 7,8-didehydrocimigenol] | 43.1 ± 5.6 | 60.9 ± 1.2 | 53.6 ± 0.9 | 
5 | COC(=O)/C=C/c1ccc(O)c(OC)c1 [Compound 2, ferulic acid methyl ester] |  |  |  | inhibition at 100 µM (AChE; [1]): 58 ± 0.6%; IC50 (AChE; [2]): 52.4 ± 3.7 µM; inhibition at 100 µM (BuChE; [1]): 62.3 ± 0.3%; IC50 (BuChE; [3]): 37.1 ± 1.5 µM
6 | CC(=O)OC1C(OC2CCC34CC35CCC3(C)C6C(C)CC7OC6(OC7C(C)(C)O)C(O)C3(C)C5=CCC4C2(C)C)OCC(O)C1O (stereo not shown) [Compound 18, cimiricaside A] | 23.1 ± 6.8 | 51 ± 0.5 | 54.4 ± 1.3 | 
7 | CC(=O)OC(C)(C)C1OC23OC1CC(C)C2C1(C)CCC24CC25CCC(O)C(C)(C)C5CC=C4C1(C)C3O (stereo not shown) [Compound 8, 25-O-acetyl-7,8-didehydrocimigenol] | 55.4 ± 2.6 |  | 18 ± 0.4 | IC50 (AChE): 69.5 ± 1.2 µM
8 | CC(=O)O[C@@H]1C[C@@]23C[C@@]24CC[C@H](O)C(C)(C)[C@@H]4CC=C3[C@]2(C)C[C@@H]3O[C@]4(C[C@@H](C)[C@@H]3[C@@]12C)O[C@H](O)[C@@]1(C)O[C@@H]41 [Compound 7, 25-triepoxy-12β-acetoxy-3β,26-dihydroxy-9,19-cyclolanost-7-ene] | 52 ± 0.1 |  | 41 ± 0.1 | IC50 (AChE): 92.1 ± 2.2 µM
9 | CC1CC2OC3(OC2C(C)(C)O)C1C1(C)CCC24CC25CCC(O)C(C)(C)C5CC=C4C1(C)C3O (stereo not drawn) [Compound 10, 24-epi-7,8-didehydrocimigenol] | 31.8 ± 0.5 |  | 41.1 ± 2.2 | 
10 | CC(=O)O[C@H]([C@H]1C[C@@H](C)[C@H]2[C@@](O)(O1)[C@H](O)[C@@]1(C)C3=CC[C@H]4C(C)(C)[C@@H](O)CC[C@@]45C[C@@]35CC[C@]21C)C(C)(C)O [Compound 12, 24-epi-24-O-acetyl-7,8-didehydroshengmanol] | 28 ± 4 |  | 18.6 ± 0.3 | 
11 | C=C(C)C1OC23OC1CC(C)C2C1(C)CCC24CC25CCC(OC2OCC(O)C(O)C2O)C(C)(C)C5CC=C4C1(C)C3O [Compound 19, 7,8-didehydro-25-anhydrocimigenol-3-O-β-D-xylopyranoside] | 21.5 ± 1.7 |  | 38.5 ± 0.1 | 
12 | C=C(C)[C@H]1O[C@@]23O[C@@H]1C[C@@H](C)[C@@H]2[C@@]1(C)CC[C@@]24C[C@@]25CC[C@H](O)C(C)(C)[C@@H]5CC=C4[C@]1(C)[C@H]3O [Compound 13, 25-anhydrocimigenol] | 42.8 ± 0.8 |  | 44.9 ± 1.1 | 
13 | CC(C)=CC=C1C(=O)Nc2ccccc21 [Compound 4, (E)-3‐(3′-methyl-2′-butenylidene)-2-indolinone] |  |  |  | inhibition at 100 µM (AChE; [1]): 61 ± 4.6%; IC50 (AChE; [2]): 48 ± 6.8 µM; inhibition at 100 µM (BuChE; [1]): 93.1 ± 0.6%; Binding mode (BuChE) (BuChE): noncompetitive mode; also recorded: Non-competitive type (BuChE); IC50 (BuChE; [3]): 6.5 ± 2.5 µM; Ki (BuChE; [4]): 3.5 ± 1.5 µM
14 | CC(C)=CC=C1C(=O)N(C)c2ccccc21 [Compound 3, (E)-3‐(3′-methyl-2′-butenylidene)-1-methyl-2-indolinone] |  |  |  | inhibition at 100 µM (AChE; [1]): 53.8 ± 0.1%; IC50 (AChE; [2]): 95.8 ± 5.1 µM; inhibition at 100 µM (BuChE; [1]): 88.7 ± 1.3%; Binding mode (BuChE) (BuChE): noncompetitive mode; also recorded: Non-competitive type (BuChE); IC50 (BuChE; [3]): 13.8 ± 1.2 µM; Ki (BuChE; [4]): 4.9 ± 2.1 µM
15 | C=C(C)C1OC23OC1CC(C)C2C1(C)CCC24CC25CCC(O)C(C)(C)C5CC=C4C1(C)C3O (stereo not shown) [Compound 9, 25-anhydro-7,8-didehydrocimigenol] | 48.6 ± 0.6 | 35.1 ± 1.2 | 51 ± 1.9 | 
16 | CC(=O)O[C@@H]([C@H]1C[C@@H](C)[C@H]2[C@@](O)(O1)[C@H](O)[C@@]1(C)C3=CC[C@H]4C(C)(C)[C@@H](O)CC[C@@]45C[C@@]35CC[C@]21C)C(C)(C)O [Compound 6, 24-epi-24-O-acetyl-7,8-didehydroshengmanol] | 53.7 ± 1.6 | 90.9 ± 6 | 57.3 ± 0.3 | IC50 (AChE): 94.9 ± 3.5 µM
17 | C=C(C)[C@H]1O[C@@]23O[C@@H]1C[C@@H](C)[C@@H]2[C@@]1(C)CC[C@@]24C[C@@]25CC[C@H](O[C@@H]2OC[C@@H](O)[C@H](O)[C@H]2O)C(C)(C)[C@@H]5CCC4[C@]1(C)[C@H]3O (stereo partly drawn) [Compound 15, 25-anhydrocimigenol-3-O-β-D-xylopyranoside] | 37.1 ± 0.5 | 33.3 ± 5 | 60.7 ± 0.6 | 
18 | 3-O-β-D-xylopyranosyl-24S,25-dihydroxy-15-oxo-acta-(16R,23R)-16,23-monoxoside [Compound 17] |  |  |  | AChE inhibitory activity at 100 μM (%) (AChE; [1]): 47.1 ± 1.6%; BuChE inhibitory activity at 100 μM (%) (BuChE; [1]): 55.4 ± 0.8%; IC50 (BuChE; [3]): 84.1 ± 5.7 µM
19 | CC(=O)OC(C)(C)C1OC23OC1CC(C)C2C1(C)CCC24CC25CCC(OC2OCC(O)C(O)C2O)C(C)(C)C5CC=C4C1(C)C3O [Compound 14, 25-O-acetyl-7,8-didehydrocimigenol 3-O-β-D-xylopyranoside] | 24.9 ± 6.2 | 22.6 ± 0.4 | 55 ± 0.7 | Ki (BuChE): 10.7 ± 1.3 µM; Binding mode (BuChE) (BuChE): competing with substrate; also recorded: Competitive type (BuChE)
